Assay [1] addresses T1, HlGST (recombinant HlGST, rHlGST) (Haemaphysalis longicornis, UniProt Q6JVN0).
T1 construct: gene GST
T1 sequence (Q6JVN0 1-223): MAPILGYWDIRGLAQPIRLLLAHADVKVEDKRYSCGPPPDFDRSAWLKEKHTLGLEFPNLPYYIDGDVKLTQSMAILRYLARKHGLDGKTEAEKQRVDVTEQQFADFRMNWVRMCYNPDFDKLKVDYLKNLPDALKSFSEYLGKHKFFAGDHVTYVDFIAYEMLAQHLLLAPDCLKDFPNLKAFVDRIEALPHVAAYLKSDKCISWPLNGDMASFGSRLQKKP
Description: absorbance at […] nm, Lineweaver-Burk plot. The assay is classed as biochemical. Conditions: 5 mM GSH, CDNB 0.125-2 mM, 100 mM Tris-HCl pH 7.5, 25 °C, 5% methanol; read-out: CDNB kinetic constant^a.

Assay [2] has as its target T2, HlGST2 (recombinant HlGST2, rHlGST2) (Haemaphysalis longicornis, UniProt A0A2Z6FA39).
T2 construct: gene GST
Description: absorbance at […] nm, Lineweaver-Burk plot. Conditions: 5 mM GSH, CDNB 0.125-2 mM, 100 mM Tris-HCl pH 7.5, 25 °C, 5% methanol; read-out: CDNB kinetic constant^a. The format is biochemical.

This note sets out measurements from PMC5806375, “Characterization and expression analysis of a newly identified glutathione S-transferase of the hard tick Haemaphysalis longicornis during blood-feeding” (Parasites & Vectors, 2018).

Structures are written as SMILES.

T2 sequence (A0A2Z6FA39 1-230): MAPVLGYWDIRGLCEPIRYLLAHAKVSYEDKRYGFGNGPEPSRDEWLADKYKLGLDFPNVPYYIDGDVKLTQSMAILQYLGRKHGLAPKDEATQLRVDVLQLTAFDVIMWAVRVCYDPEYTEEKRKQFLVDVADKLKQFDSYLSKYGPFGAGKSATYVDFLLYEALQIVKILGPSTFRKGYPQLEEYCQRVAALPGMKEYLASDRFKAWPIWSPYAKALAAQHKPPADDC

For `O=[N+]([O-])c1ccc(Cl)c([N+](=O)[O-])c1` [CDNB, 1-chloro-2,4-dinitrobenzene], the Km was found to be 820 ± 140 µM in assay [1] and 610 ± 200 µM in assay [2].
